The test addresses T1, CpunOBP2 (Conogethes punctiferalis, UniProt A0A0C4K8H3).
T1 construct: gene OBP2; pET-32a(+) in E. coli BL21(DE3); Ni-IDA purified; tags removed by enterokinase
T1 sequence (A0A0C4K8H3 23-151): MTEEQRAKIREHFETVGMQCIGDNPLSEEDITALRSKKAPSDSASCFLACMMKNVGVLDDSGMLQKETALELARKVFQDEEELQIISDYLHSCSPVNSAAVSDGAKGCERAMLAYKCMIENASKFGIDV
Kind of test: competitive 1-NPN fluorescence displacement. Format: binding. The text has this: competitive 1-NPN fluorescence displacement on CpunOBP2

Each structure is given as a SMILES string.

As a reminder, the IC50 is the concentration at which inhibition is half-maximal. A low value points to greater potency in that assay. What is called Ki is the dissociation constant of the complex between target and ligand, obtained from inhibition or displacement. Consider `CCCCC/C=C/CCCCCCCCC=O` [E10-16∶Ald, (E)-10-hexadecenal], for which the half-maximal inhibitory concentration (IC50) came to 9.55 ± 4.58 µM and the inhibition constant Ki came to 8.48 ± 4.06 µM.

As to `CC/C=C\C/C=C\C/C=C\CCCCCCCCCCCCC` [Z3, Z6, Z9-23∶HC, (Z3, Z6, Z9)-tricosatriene], the IC50 is 4.14 ± 2.63 µM and the Ki was 3.68 ± 2.33 µM.

For `CCCCC/C=C\CCCCCCCCC=O` [Z10-16∶Ald, (Z)-10-hexadecenal], the IC50 was determined as 7.73 ± 2.82 µM and the affinity, expressed as Ki, was 6.86 ± 2.5 µM.
